The source of these data is EP3782997A1, “FUSED PYRIMIDINE COMPOUNDS AND PHARMACEUTICAL COMPOSITIONS THEREOF FOR THE TREATMENT OF FIBROTIC DISEASES” (Galapagos N.V., priority 2019, dated 2021).

This assay concerns the target hENPP2 (Homo sapiens, UniProt Q13822). Kind of assay: Human ENPP2 (hENPP2) biochemical assay using LPC as substrate. The settings on record: 150 µM LPC (palmitoyl 16:0), 37°C for 30 min. The method, then:
The principle of the assay conswasts in quantifying the released choline with an enzymatic method using choline oxidase and peroxidase. Choline oxydation by choline oxydase releases betaine and peroxide. The latter was quantified in presence of HRP that converts the peroxide detection agent TOOS (CAS# 82692-93-1) and 4-aminoantipyrine into quinoneimine dye. The appearance of quinoneimine dye was measured spectrophotometrically at 555 nm and was proportional to the amount of choline released by ENPP2. Inhibition of ENPP2 results in a decrease of the signal.
Compound IC50 values were determined in a hENPP2 (UniProtKB/SwwassProt Sequence ref Q13822) biochemical assay using LPC as substrate.
5 µL of a dilution series of compound, starting from 50 µM highest concentration, 1/3 dilution, was added to the wells. hENPP2 was used at a final concentration of 1 µg/mL or 3 µg/mL (it will be appreciated by the skilled person that the potency read out was independent of the enzyme concentration). The enzyme was diluted in 50 mM Trwas-HCl pH 8.5, 500 mM NaCl, 5 mM KCl, 10 mM CaCl2, 0.1% fatty acid free BSA in a total volume of 10 µL. The reaction was started by the addition of 10 µL of 150 µM LPC (palmitoyl 16:0; Avanti Polar Lipids, Inc., Cat# 855675) diluted in the same buffer as described above and the mixture was incubated at 37°C for 30 min. The reaction was terminated and choline quantified by the addition of a 25 µL of a mixture containing 0.6 U/mL of choline oxidase, 0.6 U/mL of peroxydase, 1.8 mM TOOS, 1.2 mM amino-antipyrine, 20 mM EGTA (stop-developer solution) diluted in the buffer described above. […] was read on an Envision plate reader (PerkinElmer, Inc.) after an incubation of 30 min at room temperature (excitation 555 nm).
`Cc1cc(C)cc(Nc2ncc3c(n2)CN(C2CCN(C(=O)c4ccc5[nH]nnc5c4)C(C)(C)C2)C3)c1` (stereo not shown) [Cpd 100, 1H-benzotriazol-5-yl-[4-[2-(3,5-dimethylanilino)-5,7-dihydropyrrolo[3,4-d]pyrimidin-6-yl]-2,2-dimethyl-1-piperidyl]methanone] had an IC50 of 0.01 to 100 nM.
The same measure for `Cc1cc(C)cc(Nc2ncc3c(n2)CN(C2CN(C(=O)c4ccc5[nH]nnc5c4)CC2(F)F)C3)c1` (stereo not shown) [Cpd 101, 1H-benzotriazol-5-yl-[4-[2-(3,5-dimethylanilino)-5,7-dihydropyrrolo[3,4-d]pyrimidin-6-yl]-3,3-difluoro-pyrrolidin-1-yl]methanone]: 100 to 500 nM; for `COC(=O)[C@@H]1C[C@H](N2Cc3cnc(Nc4cc(C)cc(C)c4)nc3C2)CCN1C(=O)c1ccc2[nH]nnc2c1` [Cpd 104, methyl (2S,4R)-1-(1H-benzotriazole-5-carbonyl)-4-[2-(3,5-dimethylanilino)-5,7-dihydropyrrolo[3,4-d]pyrimidin-6-yl]pipe ridine-2-carboxylate]: 0.01 to 100 nM.
Regarding `Cc1cc(C)cc(Nc2ncc3c(n2)CN(C2CCN(C(=O)c4ccc5[nH]cnc5c4)CC2)C3)c1` [Cpd 108, 1H-benzimidazol-5-yl-[4-[2-(3,5-dimethylanilino)-5,7-dihydropyrrolo[3,4-d]pyrimidin-6-yl]-1-piperidyl]methanone], the IC50 was in the range of 500 to 1000 nM.
In the case of `Cc1cc(C)cc(Nc2ncc3c(n2)CN(C2CCN(C(=O)c4cc5nn[nH]c5cc4F)C(C)(C)C2)C3)c1` (stereo not shown) [Cpd 117, [4-[2-(3,5-dimethylanilino)-5,7-dihydropyrrolo[3,4-d]pyrimidin-6-yl]-2,2-dimethyl-1-piperidyl]-(6-fluoro-1H-benzotriazol-5-yl)methanone], the IC50 was 0.01 to 100 nM.
Regarding `Cc1cc(C)cc(Nc2ncc3c(n2)CN(C2CCN(C(=O)c4ccc5oc(=O)[nH]c5c4)CC2)C3)c1` [Cpd 118, 5-[4-[2-(3,5-dimethylanilino)-5,7-dihydropyrrolo[3,4-d]pyrimidin-6-yl]piperidine-1-carbonyl]-3H-1,3-benzoxazol-2-one], the IC50 is > 1000 nM.
On to `Cc1cc(C)cc(Nc2ncc3c(n2)CN([C@H]2CCN(C(=O)c4ccc(S(N)(=O)=O)cc4)[C@@H](C)C2)C3)c1` [Cpd 124, 4-[(2S,4S)-4-[2-(3,5-dimethylanilino)-5,7-dihydropyrrolo[3,4-d]pyrimidin-6-yl]-2-methyl-piperidine-1-carbonyl]benzenesulfonamide], for which the IC50 is > 1000 nM.
The molecule `COc1cc(C)cc(Nc2ncc3c(n2)CN([C@@H]2CCN(C(=O)c4ccc5[nH]nnc5c4)[C@H](C)C2)C3)c1` [Cpd 125, 1H-benzotriazol-5-yl-[(2R,4R)-4-[2-(3-methoxy-5-methyl-anilino)-5,7-dihydropyrrolo[3,4-d]pyrimidin-6-yl]-2-methyl-1-piperidyl]methanone] registered a concentration for half-maximal inhibition (IC50) of 0.01 to 100 nM.
With `Cc1cc(C)cc(Nc2ncc3c(n2)CN(C2(C)CCN(C(=O)c4ccc5[nH]nnc5c4)CC2)C3)c1` [Cpd 130, 1H-benzotriazol-5-yl-[4-[2-(3,5-dimethylanilino)-5,7-dihydropyrrolo[3,4-d]pyrimidin-6-yl]-4-methyl-1-piperidyl]methanone], the IC50 was in the range of 0.01 to 100 nM.
Regarding `Cc1cc(C)cc(Nc2ncc3c(n2)CN([C@H]2CCN(C(=O)c4ccc(S(=O)(=O)NC(=O)C(C)C)cc4)[C@@H](C)C2)C3)c1` [Cpd 131, N-[4-[(2S,4S)-4-[2-(3,5-dimethylanilino)-5,7-dihydropyrrolo[3,4-d]pyrimidin-6-yl]-2-methyl-piperidine-1-carbonyl]phenyl]sulfonyl-2-methyl-propanamide], the IC50 was > 1000 nM.
Consider `Cc1cc(C)cc(Nc2ncc3c(n2)CN([C@H]2CCN(C(=O)c4ccc(C(=O)O)cc4)[C@@H](C)C2)C3)c1` [Cpd 132, 4-[(2S,4S)-4-[2-(3,5-dimethylanilino)-5,7-dihydropyrrolo[3,4-d]pyrimidin-6-yl]-2-methyl-piperidine-1-carbonyl]benzoic acid], for which the IC50 was > 1000 nM.
The same measure for `Cc1cc(C)cc(Nc2ncc3c(n2)CN([C@H]2CCN(C(=O)c4ccc(C(=O)NS(C)(=O)=O)cc4)[C@@H](C)C2)C3)c1` [Cpd 133, 4-[(2S,4S)-4-[2-(3,5-dimethylanilino)-5,7-dihydropyrrolo[3,4-d]pyrimidin-6-yl]-2-methyl-piperidine-1-carbonyl]-N-methylsulfonylbenzamide]: > 1000 nM.
The same measure for `Cc1cc(C)cc(Nc2ncc3c(n2)CCN(C2CCN(C(=O)c4ccc5[nH]nnc5c4)[C@@H](C)C2)CC3)c1` (stereo partly drawn) [Cpd 142, 1H-benzotriazol-5-yl-[(2S)-4-[2-(3,5-dimethylanilino)-5,6,8,9-tetrahydropyrimido[4,5-d]azepin-7-yl]-2-methyl-1-piperidyl]methanone]: 100 to 500 nM; for `Cc1cc(C)cc(Nc2ncc3c(n2)CN([C@@H]2CCN(C(=O)c4cccc(C(=O)O)c4)[C@H](C)C2)C3)c1` [Cpd 146, 3-[(2R,4R)-4-[2-(3,5-dimethylanilino)-5,7-dihydropyrrolo[3,4-d]pyrimidin-6-yl]-2-methyl-piperidine-1-carbonyl]benzoic acid]: > 1000 nM; for `Cc1cc(C)cc(Nc2ncc3c(n2)CN([C@@H]2CCN(C(=O)c4ccc(-c5nnn[nH]5)cc4)[C@H](C)C2)C3)c1` [Cpd 153, [(2R,4R)-4-[2-(3,5-dimethylanilino)-5,7-dihydropyrrolo[3,4-d]pyrimidin-6-yl]-2-methyl-1-piperidyl]-[4-(1H-tetrazol-5-yl)phenyl]methanone]: > 1000 nM.
The value for `Cc1cc(C)cc(Nc2ncc3c(n2)CCN(C2(C)CCN(C(=O)c4ccc5[nH]nnc5c4)CC2)C3)c1` [Cpd 158, 1H-benzotriazol-5-yl-[4-[2-(3,5-dimethylanilino)-7,8-dihydro-5H-pyrido[4,3-d]pyrimidin-6-yl]-4-methyl-1-piperidyl]methanone] was 0.01 to 100 nM; that for `C[C@@H]1C[C@H](N2Cc3cnc(Nc4ccc(C#N)cc4)nc3C2)CCN1C(=O)c1ccc2[nH]nnc2c1` [Cpd 160, 4-[[6-[(2R,4R)-1-(1H-benzotriazole-5-carbonyl)-2-methyl-4-piperidyl]-5,7-dihydropyrrolo[3,4-d]pyrimidin-2-yl]amino]benzonitrile] was 0.01 to 100 nM; that for `Cc1cc(C)cc(Nc2ncc3c(n2)CCN(C2CN(C(=O)c4ccc5[nH]nnc5c4)C2)C3)c1` [compound 2, 1H-benzotriazol-5-yl-[3-[2-(3,5-dimethylanilino)-7,8-dihydro-5H-pyrido[4,3-d]pyrimidin-6-yl]azetidin-1-yl]methanone] was 100 to 500 nM.
Take `Cc1cc(C)cc(Nc2ncc3c(n2)CCN(C2CCN(C(=O)c4ccc5[nH]c(=O)oc5c4)C2)C3)c1` (stereo not shown) [compound 4, 6-[3-[2-(3,5-dimethylanilino)-7,8-dihydro-5H-pyrido[4,3-d]pyrimidin-6-yl]pyrrolidine-1-carbonyl]-3H-1,3-benzoxazol-2-one]: the IC50 lay in the range of 0.01 to 100 nM.
For the molecule `Cc1cc(C)cc(Nc2ncc3c(n2)CCN(C2CCN(C(=O)c4ccc5[nH]nnc5c4)C2)C3)c1` (stereo not shown) [compound 5, 1H-benzotriazol-5-yl-[3-[2-(3,5-dimethylanilino)-7,8-dihydro-5H-pyrido[4,3-d]pyrimidin-6-yl]pyrrolidin-1-yl]methanone], the IC50 fell in the range of 100 to 500 nM.
The same measure for `O=C(c1ccc2[nH]c(=O)oc2c1)N1CC(N2Cc3cnc(Nc4cc(C(F)(F)F)cc(C(F)(F)F)c4)nc3C2)C1` [compound 6, 6-[3-[2-[3,5-bis(trifluoromethyl)anilino]-5,7-dihydropyrrolo[3,4-d]pyrimidin-6-yl]azetidine-1-carbonyl]-3H-1,3-benzoxazol-2-one]: 0.01 to 100 nM; for `Cc1cc(C)cc(Nc2ncc3c(n2)CCN(C2CCN(C(=O)c4ccc5[nH]c(=O)oc5c4)CC2)C3)c1` [compound 7, 6-[4-[2-(3,5-dimethylanilino)-7,8-dihydro-5H-pyrido[4,3-d]pyrimidin-6-yl]piperidine-1-carbonyl]-3H-1,3-benzoxazol-2-one]: 100 to 500 nM.
The value for `O=C(c1ccc2[nH]c(=O)oc2c1)N1CC(N2CCc3nc(Nc4cc(C(F)(F)F)cc(C(F)(F)F)c4)ncc3C2)C1` [compound 8, 6-[3-[2-[3,5-bis(trifluoromethyl)anilino]-7,8-dihydro-5H-pyrido[4,3-d]pyrimidin-6-yl]azetidine-1-carbonyl]-3H-1,3-benzoxazol-2-one] was 0.01 to 100 nM.
For the molecule `O=C(c1ccc2[nH]nnc2c1)N1CC(N2Cc3cnc(Nc4cc(C(F)(F)F)cc(C(F)(F)F)c4)nc3C2)C1` [compound 9, 1H-benzotriazol-5-yl-[3-[2-[3,5-bis(trifluoromethyl)anilino]-5,7-dihydropyrrolo[3,4-d]pyrimidin-6-yl]azetidin-1-yl]methanone], the IC50 was 0.01 to 100 nM.
The same measure for `Cc1cc(C)cc(Nc2ncc3c(n2)CN(C2CCN(C(=O)c4ccc5[nH]nnc5c4)CC2)C3)c1` [compound 10, 1H-benzotriazol-5-yl-[4-[2-(3,5-dimethylanilino)-5,7-dihydropyrrolo[3,4-d]pyrimidin-6-yl]-1-piperidyl]methanone]: 0.01 to 100 nM.

Usually IC50 stands for the concentration that gives 50% inhibition. A higher IC50 goes with a need for much substance.
